Patent US20250002470A1, “NITROGEN-CONTAINING COMPOUND, PREPARATION METHOD THEREFOR AND APPLICATION THEREOF” (ZHEJIANG AIXPLORER BIOTECH CO., LTD., priority 2021, published 2025)

Legend:
hERG potassium channel = hERG potassium channel (Homo sapiens, UniProt Q12809); assay: Whole-cell patch-clamp (QPatch) of hERG current in HEK293 cells stably expressing hERG; format: cell-based
Method: In this study, a whole-cell patch-clamp technique was used to study the inhibitory effect of compounds on hERG potassium channels and to evaluate the risk of ventricular repolarization toxicity.
The HEK293 cell line stably expressing the hERG potassium channel cells was purchased from Creacell, Inc. (Cat. No. A-0320).
The HEK293 cell line that can stably express the hERG potassium channel, was cultured in DMEM medium containing 10% fetal bovine serum and 0.8 mg/mL G418 at 37° C. and 5% carbon dioxide.
Before the test, the cells were separated with TrypLET Express, centrifuged after adding medium to terminate digestion, resuspended the cell count, adjusted the cell density to 2-3×10^6 cells/mL, and then lightly mixed the cells on a room temperature equilibration shaker for 15-20 min.
Electrophysiological assays were performed using a fully automated patch-clamp QPatch 48 X (Sophion) device. The prepared cells were placed on a centrifuge on the Qpatch bench, the cells were washed using multiple centrifugation/suspension methods, and the cell culture medium was replaced with extracellular fluid. Remove an MTP-96 plate and place it in the location of the MTP source. Remove the QPlate chip and subsequently place the QPlate at the Qplate source location. The robotic arm scans the MTP-96 board and the QPlate chip barcode and grabs it to the measuring station. Draw the intracellular and external fluid from the liquid pool and add them to the intracellular fluid pool, cell and test cell pool of the QPlate chip, respectively. At the measuring station, all measuring sites on the QPlate undergo initial quality control. The quality control process includes aspirating the cell suspension from the cell vessel of the centrifuge and positioning the cells to the chip wells via a pressure controller to establish a high-resistance seal and create a whole-cell recording pattern.
The voltage stimulation protocol for whole-cell patch-clamp recording of whole-cell hERG potassium currents is as follows: the cell membrane voltage clamps at −80 mV when a whole-cell closure is formed. The clamping voltage is depolarized from −80 mV to −50 mV for 0.5 s (as a leakage current detection), then steps to 30 mV for 2.5 s, and then quickly recovers to −50 mV for 4 s to excite the tail current of the hERG channel. The data were collected repeatedly every 10 s to observe the effect of the drug on the hERG tail current. −50 mV stimulation at 0.5 s was used as the leakage current detection. The test data is collected by Qpatch and stored in the connected service station.
First, the current after the effect of each drug concentration and the blank control current are normalized 0, and then the inhibition rate corresponding to each drug concentration is calculated.
Calculate the mean and standard error for each concentration and calculate the semi-inhibitory concentration for each compound using the following Formula:
Y=Bottom+(Top−Bottom)/(1+10^((LogIC50−X)*HillSlope)) The above Formula was used to fit the dose-dependent effect nonlinearly, where C represents the test substance concentration, IC50 is the semi-inhibitory concentration, and h represents the Hill coefficient. Curve fitting and IC50 calculations were performed using Graphpad software.

NLRP3 = molecular target: T1, NLRP3 (Homo sapiens, UniProt Q96P20); assay: IL-1β (interleukin-1β) secretion in IFN-γ-differentiated, LPS/ATP-stimulated THP-1 cells (half inhibition rate of NLRP3); format: cell-based; conditions: IFN-γ 25 ng/mL, LPS 50 ng/mL, ATP 5 mM
T1 construct: endogenous in cells; host or cells: THP-1 cells (IFN-γ differentiated, LPS primed, ATP stimulated)
Method: Remove THP-1 cells from liquid nitrogen and place in a 37° C. water bath until ice melt. Add the cells to 5 mL of warm cell culture medium and centrifuge at 1,000 rpm for 5 min. Discard the supernatant and resuspend and culture in a new cell culture medium.
THP-1 cells are cultured in the culture medium and passaged every 2-3 days.
2.1.1 Add 100 μL of cell suspension per well to the cell plate and incubate the cell plate in a 37° C., 5% CO2 incubator for 24 hours.
2.2.1 Discard the supernatant of IFN-γ differentiation after differentiation treatment. Add 100 μL of serum-free medium containing LPS (final concentration of 50 ng/mL) to the cell plate. The cell plates were incubated in a 37° C., 5% CO2 incubator for 4 h.
Place the cell plate in an incubator at 37° C. and 5% CO2 for 1 hour.
2.2.3 Add 20 μL of 6×ATP per well according to the plate map (final concentration 5 mM) and incubate the cell plate in a 37° C., 5% CO2 incubator for 1 h. Collect the supernatant (60 μL) and store at −20° C.
The capture antibody mAb Mt175 is diluted to 2 μg/mL with PBS (1:250) and added to the cell plate at 15 μL per well. Keep the plate overnight at 4° C.
2.4.1 Discard the coated antibody and wash 4 times with PBST.
2.4.3 Discard the blocking buffer and wash 4 times with PBST.
2.4.4 Add 25 μL of 2.2.3 collected supernatant sample per well and incubate for 2 h at room temperature.
2.4.5 Discard the samples and wash 4 times with PBST.
2.4.6 Add mAb7P10-biotin (concentration 0.5 ug/mL) to blocking buffer, add 15 μL per well to the cell plate, and incubate for 1 hour at room temperature.
2.4.7 Discard the antibody and wash 4 times with PBST.
2.4.8 Streptavidin-HRP was diluted 1:1000 in blocking buffer, 15 μL per well was added to the cell plate, and incubated for 1 hour at room temperature.
2.4.9 Discard streptavidin-HRP and wash 4 times with PBST.
2.4.10 Add 25 μL of HRP substrate (Surmodics-TMBW-0100-01) per well and incubate the cell plate until a blue product appears.
2.4.11 Add 25 μL of stop solution (Surmodics-LSTP-0100-01) per well, and the blue product turns yellow.
2.4.12 Read the cell plate at 450 nm with a microplate reader.

T1 sequence (Q96P20 whole entry): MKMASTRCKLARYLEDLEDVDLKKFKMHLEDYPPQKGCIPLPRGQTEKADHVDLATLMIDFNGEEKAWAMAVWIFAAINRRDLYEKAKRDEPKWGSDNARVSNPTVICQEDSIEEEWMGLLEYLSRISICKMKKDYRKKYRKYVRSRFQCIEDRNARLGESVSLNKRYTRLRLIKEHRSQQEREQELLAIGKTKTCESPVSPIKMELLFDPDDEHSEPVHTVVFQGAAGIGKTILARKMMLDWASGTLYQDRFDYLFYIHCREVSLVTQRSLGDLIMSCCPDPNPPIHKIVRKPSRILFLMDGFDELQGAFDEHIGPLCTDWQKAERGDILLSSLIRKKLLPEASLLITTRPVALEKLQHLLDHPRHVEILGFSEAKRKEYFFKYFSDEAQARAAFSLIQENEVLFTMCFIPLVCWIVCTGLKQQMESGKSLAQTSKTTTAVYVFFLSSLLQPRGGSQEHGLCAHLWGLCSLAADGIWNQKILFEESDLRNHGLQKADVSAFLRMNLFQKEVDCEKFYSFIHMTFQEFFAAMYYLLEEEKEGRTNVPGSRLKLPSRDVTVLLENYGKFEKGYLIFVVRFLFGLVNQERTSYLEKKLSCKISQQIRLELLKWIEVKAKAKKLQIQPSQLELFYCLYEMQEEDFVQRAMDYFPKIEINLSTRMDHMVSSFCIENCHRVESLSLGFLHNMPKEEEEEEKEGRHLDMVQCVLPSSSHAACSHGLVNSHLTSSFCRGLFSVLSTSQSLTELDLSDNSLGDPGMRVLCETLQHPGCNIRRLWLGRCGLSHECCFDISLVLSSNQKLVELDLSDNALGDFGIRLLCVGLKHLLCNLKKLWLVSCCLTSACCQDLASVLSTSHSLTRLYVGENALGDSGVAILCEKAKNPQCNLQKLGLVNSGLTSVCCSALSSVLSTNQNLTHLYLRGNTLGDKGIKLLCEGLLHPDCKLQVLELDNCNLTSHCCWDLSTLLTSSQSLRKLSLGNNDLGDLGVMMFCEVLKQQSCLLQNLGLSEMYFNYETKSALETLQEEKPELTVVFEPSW
Sequence of hERG potassium channel (Q12809 whole entry): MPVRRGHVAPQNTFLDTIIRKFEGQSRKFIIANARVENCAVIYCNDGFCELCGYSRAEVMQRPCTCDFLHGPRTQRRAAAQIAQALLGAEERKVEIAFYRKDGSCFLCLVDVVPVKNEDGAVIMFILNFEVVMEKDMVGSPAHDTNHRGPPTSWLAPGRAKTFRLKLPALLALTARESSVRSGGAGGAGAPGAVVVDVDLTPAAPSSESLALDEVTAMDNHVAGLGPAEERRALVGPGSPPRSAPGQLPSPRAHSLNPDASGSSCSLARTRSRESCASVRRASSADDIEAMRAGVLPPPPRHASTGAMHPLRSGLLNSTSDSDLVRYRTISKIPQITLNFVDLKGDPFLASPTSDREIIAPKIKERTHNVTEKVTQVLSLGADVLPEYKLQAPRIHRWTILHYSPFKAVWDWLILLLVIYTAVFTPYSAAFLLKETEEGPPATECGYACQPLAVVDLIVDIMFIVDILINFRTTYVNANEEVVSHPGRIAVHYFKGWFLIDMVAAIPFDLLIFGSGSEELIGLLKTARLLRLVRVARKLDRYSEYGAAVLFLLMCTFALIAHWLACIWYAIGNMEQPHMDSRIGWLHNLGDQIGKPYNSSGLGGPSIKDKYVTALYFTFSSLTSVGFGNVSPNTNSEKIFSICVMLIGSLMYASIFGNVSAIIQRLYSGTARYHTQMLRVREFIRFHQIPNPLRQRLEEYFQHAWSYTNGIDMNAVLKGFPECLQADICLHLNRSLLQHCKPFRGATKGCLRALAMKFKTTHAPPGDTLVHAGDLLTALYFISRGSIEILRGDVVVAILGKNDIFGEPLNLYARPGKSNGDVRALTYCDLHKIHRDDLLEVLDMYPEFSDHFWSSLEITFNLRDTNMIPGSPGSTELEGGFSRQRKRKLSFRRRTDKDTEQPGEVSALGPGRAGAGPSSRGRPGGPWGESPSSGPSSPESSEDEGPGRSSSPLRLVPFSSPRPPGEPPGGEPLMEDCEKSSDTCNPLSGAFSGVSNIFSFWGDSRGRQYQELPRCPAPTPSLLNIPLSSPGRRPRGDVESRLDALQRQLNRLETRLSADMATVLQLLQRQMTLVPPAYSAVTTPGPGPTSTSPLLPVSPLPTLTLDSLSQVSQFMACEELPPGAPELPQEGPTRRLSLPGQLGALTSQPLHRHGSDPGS

Row | Structure (SMILES) | IC50 (hERG potassium channel) | IC50 (NLRP3)
1 | Cc1cc(N[C@@H]2CCCN(C)C2)nnc1-c1ccc(C(F)(F)F)cc1O [Comparison 3] | < 10000 nM | 
2 | OCCN1CCC[C@@H](Nc2nnc(-c3ccc(Cl)cc3O)c3ccccc23)C1 [Embodiment 155] | > 30000 nM | 2.5 nM
3 | Cc1nc(N[C@@H]2CCCN(C[C@@H](C)O)C2)nnc1-c1ccc(C(F)(F)F)cc1O [Embodiment 150] | > 30000 nM | 9.9 nM
4 | Cc1nc(N[C@H]2C[C@@](C)(O)C2)nnc1-c1ccc(C(F)(F)F)cc1O [Embodiment 37, 2-(3-(((cis)-3-hydroxy-3-methylcyclobutyl)amino)-5-methyl-1,2,4-triazin-6-yl)-5-(trifluoromethyl)phenol] | > 30000 nM | 27.3 nM
5 | Cc1cc(C)c(-c2cnc(N[C@@H]3CCCN(C4CC4)C3)nn2)c(O)c1 [Embodiment 6, (R)-2-(3-((1-cyclopropylpiperidin-3-yl)amino)-1,2,4-triazin-6-yl)-3,5-dimethylphenol] | > 30000 nM | 7.4 nM
6 | CC(CO)N1CCC[C@@H](Nc2nnc(-c3ccc(C(F)(F)F)cc3O)c3cnccc23)C1 (stereo partly shown) [Embodiment 127] | > 30000 nM | 3.5 nM
7 | Cc1cc(C(F)(F)F)cc(O)c1-c1cnc(N[C@H]2C[C@@](C)(O)C2)nn1 [Embodiment 40, 2-(3-(((cis)-3-hydroxy-3-methylcyclobutyl)amino)-1,2,4-triazin-6-yl)-3-methyl-5-(trifluoromethyl)phenol] | > 30000 nM | 12.4 nM
8 | C[C@]1(O)C[C@@H](Nc2nnc(-c3ccc(C(F)(F)F)cc3O)c3ccc(F)cc23)C1 [Embodiment 139] | > 30000 nM | 1.9 nM
9 | C[C@]1(O)C[C@@H](Nc2nnc(-c3ccc(C(F)(F)F)cc3O)c3cnccc23)C1 [Embodiment 78] | > 30000 nM | 2.8 nM
10 | Cc1nc(N[C@@H]2CCCN(CCO)C2)nnc1-c1ccc(Cl)cc1O [Embodiment 152] | > 30000 nM | 10.4 nM
11 | Oc1cc(C(F)(F)F)ccc1-c1nnc(N[C@@H]2CCCC[C@H]2O)c2ccc(F)cc12 [Embodiment 137] | > 30000 nM | 2 nM
12 | CC(CO)N1CCC[C@@H](Nc2nnc(-c3ccc(C(F)(F)F)cc3O)c3ccoc23)C1 (stereo partly shown) [Embodiment 130] | > 30000 nM | 1.9 nM
13 | Cc1cc(C(F)(F)F)cc(O)c1-c1cnc(N[C@@H]2CCC[C@@H](O)C2)nn1 [Embodiment 39] | > 30000 nM | 
14 | Cc1nc(N[C@@H]2CCCN(CC(C)(C)O)C2)nnc1-c1ccc(C(F)(F)F)cc1O [Embodiment 133] | > 30000 nM | 6.6 nM
15 | Cc1cc(C)c(-c2cnc(N[C@@H]3CCCN(C(C)CO)C3)nn2)c(O)c1 (stereo partly drawn) [Embodiment 22, 2-(3-(((3R)-1-(1-hydroxypropyl-2-yl)piperidin-3-yl)amino)-1,2,4-triazin-6-yl)-3,5-dimethylphenol] |  | 24 nM
16 | Cc1nc(N[C@@H]2CCCN(C(C)C)C2)nnc1-c1ccc(C(F)(F)F)cc1O [Embodiment 144] |  | 1.8 nM
17 | Cc1nc(N[C@@H]2CCCN(CC3CC3)C2)nnc1-c1ccc(C(F)(F)F)cc1O [Embodiment 146] |  | 7.4 nM

Row | Structure (SMILES) | IC50 (hERG potassium channel) | IC50 (NLRP3)
18 | COc1ccc2c(-c3ccc(C(F)(F)F)cc3O)nnc(N[C@@H]3CCCN(C)C3)c2c1 [Embodiment 118] |  | 2.9 nM
19 | Cc1ccc(-c2nnc(N[C@@H]3CCCN(C)C3)c3ccccc23)c(O)c1 [Embodiment 27, (R)-5-methyl-2-(4-((1-methylpiperidin-3-yl)amino)phthalazin-1-yl)phenol] |  | 1.4 nM
20 | CN1CCC[C@@H](Nc2nnc(-c3ccc(C(F)(F)F)cc3O)c3occc23)C1 [Embodiment 15, (R)-2-(4-((1-methylpiperidin-3-yl)amino)furo[2,3-d]pyridazin-7-yl)-5-(trifluoromethyl)phenol] |  | 28 nM
21 | Cc1cc(Cl)cc(O)c1-c1nnc(N[C@@H]2CCCN(C)C2)c2ncccc12 [Embodiment 125] |  | 9.9 nM
22 | OCCN1CCC[C@@H](Nc2nnc(-c3ccc(Cl)cc3O)c3cc(F)ccc23)C1 [Embodiment 154] |  | 3.2 nM
23 | CN1CCC[C@@H](Nc2nnc(-c3ccc(C(F)(F)F)cc3O)c3c(F)cccc23)C1 [Embodiment 122] |  | 2.9 nM
24 | CN1CCC[C@@H](Nc2nnc(-c3ccc(Cl)cc3O)c3cccnc23)C1 [Embodiment 123] |  | 5.47 nM
25 | CN1CCC[C@@H](Nc2nnc(-c3ccc(C(F)(F)F)cc3O)c3ccoc23)C1 [Embodiment 18, (R)-2-(7-((1-methylpiperidin-3-yl)amino)furo[2,3-d]pyridazin-4-yl)-5-(trifluoromethyl)phenol] |  | 5.7 nM
26 | C[C@]1(O)C[C@@H](Nc2nnc(-c3ccc(C(F)(F)F)cc3O)c3ncccc23)C1 [Embodiment 76, 2-(5-(((cis)-3-hydroxy-3-methylcyclobutyl)amino)pyrido[2,3-d]pyridazin-8-yl)-5-(trifluoromethyl)phenol] |  | 11.3 nM
27 | CN1CCC[C@@H](Nc2nnc(-c3ccc(C(F)(F)F)cc3O)c3ccncc23)C1 [Embodiment 31, (R)-2-(4-((1-methylpiperidin-3-yl)amino)pyrido[3,4-d]pyridazin-1-yl)-5-(trifluoromethyl)phenol] |  | 2.2 nM
28 | C[C@]1(O)C[C@@H](Nc2nnc(-c3ccc(C(F)(F)F)cc3O)c3ccncc23)C1 [Embodiment 77, 2-(4-(((cis)-3-hydroxy-3-methylcyclobutyl)amino)pyrido[3,4-d]pyridazin-1-yl)-5-(trifluoromethyl)phenol] |  | 19.4 nM
29 | CN1CCC[C@@H](Nc2nnc(-c3ccc(C(F)(F)F)cc3O)c3c2C(F)(F)CC3)C1 [Embodiment 112] |  | 2 nM
30 | Cc1nc(N[C@@H]2CCCN(C)C2)nnc1-c1ccc(C(F)(F)F)cc1O [Embodiment 8, (R)-2-(5-methyl-3-((1-methylpiperidin-3-yl)amino)-1,2,4-triazin-6-yl)-5-(trifluoromethyl)phenol] |  | 1.5 nM
31 | CN1CCC[C@@H](Nc2nnc(-c3ccc(Cl)cc3O)c3ncccc23)C1 [Embodiment 124] |  | 20.6 nM
32 | CCN1CCC[C@@H](Nc2nnc(-c3ccc(C(F)(F)F)cc3O)c(C)n2)C1 [Embodiment 143] |  | 0.9 nM
33 | Cc1nc(N[C@@H]2CCCN(C(C)CO)C2)nnc1-c1ncc(C(F)(F)F)cc1O (stereo partly drawn) [Embodiment 54, 2-(3-(((3R)-1-(1-hydroxypropyl-2-yl)piperidin-3-yl)amino)-5-methyl-1,2,4-triazin-6-yl)-5-(trifluoromethyl)pyridin-3-ol] |  | 46.4 nM
34 | C[C@]1(O)C[C@@H](Nc2nnc(-c3ccc(C(F)(F)F)cc3O)c3cc(F)ccc23)C1 [Embodiment 138] |  | 4.7 nM
